Several values for one entry are separate records, joined by “and”; a condition that tells them apart may be missing. Equal entries are not always repeated. Activity calls are given as the source filed them.
Experiments:
[1] = biological target: Muscarinic acetylcholine receptor M1 (Rattus norvegicus, UniProt P08482); experiment: concentration-dependent potentiation of ACh at M1 – cell-based, calcium mobilization, CHO-K1, ACh EC20, dose response (AID 2425); assay type: functional
[2] = microbe, parasite or virus in culture; assay type: functional; conditions: Mycobacterium tuberculosis
[3] = M. tuberculosis growth inhibition, HTS (AID 449762); assay type: functional
[4] = biological target: T1, Induced myeloid leukemia cell differentiation protein Mcl-1 (Homo sapiens, UniProt Q07820); assay type: functional
Ephrin type-A receptor 4 = Ephrin type-A receptor 4 (Mus musculus, UniProt Q03137); experiment: EphA4 ligand-binding antagonists – biochemical, colorimetric, mouse EphA4, primary screen (AID 689); assay type: functional
[5] = biological target: T2, Tyrosine-protein phosphatase non-receptor type 7 (Homo sapiens, UniProt P35236); experiment: redox-active compounds inhibiting HePTP phosphatase – biochemical, fluorescence, mechanism study (AID 2068); assay type: functional
T2 sequence (P35236 whole entry): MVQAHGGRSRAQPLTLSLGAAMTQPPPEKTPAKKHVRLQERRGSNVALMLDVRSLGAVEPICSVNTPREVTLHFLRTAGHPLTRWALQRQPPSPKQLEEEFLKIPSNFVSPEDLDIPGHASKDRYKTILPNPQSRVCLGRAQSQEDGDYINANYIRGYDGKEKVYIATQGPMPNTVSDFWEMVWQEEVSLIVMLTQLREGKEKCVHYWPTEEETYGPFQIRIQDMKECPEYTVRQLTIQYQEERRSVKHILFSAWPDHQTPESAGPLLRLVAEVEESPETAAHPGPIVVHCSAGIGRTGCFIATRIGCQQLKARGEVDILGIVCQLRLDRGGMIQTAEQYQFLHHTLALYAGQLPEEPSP

Estrogen receptor beta = Estrogen receptor beta (Homo sapiens, UniProt Q92731); experiment: blockers of SRC-3 recruitment to ERβ – biochemical, ELISA, streptavidin-HRP readout, orthogonal assay, confirmation (AID 1060)
[6] = reduction of Shn3 3'UTR-driven luciferase in osteoblasts – cell-based, Clone20 osteoblasts, firefly luciferase, cherry-picked, dose response (AID 624132); assay type: functional;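 note: firefly luciferase luminescence from reporter carrying the Shn3 3'UTR in osteoblasts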
[7] = biological target: E3 ubiquitin-protein ligase Mdm2 (Homo sapiens, UniProt Q00987); experiment: MDM2-luc reporter signal enhancers, multi-concentration potency testing, MDM2 ubiquitin-protein ligase inhibitor program, whole-cell format, luminescence detection, 384-well microplate (AID 1394); assay type: functional;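 note: MDM2 E3 inhibitors raise luminescence so EC50 is for signal enhancement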
[8] = non-specific 3'UTR reporter inhibition in Clone20-Shn3RL – cell-based, Renilla luciferase, cherry-picked, counter-screen for Shn3 inhibitor project, dose response (AID 624133); assay type: functional
[9] = viability loss in HEK293T cells – cell-based, cherry-picks, cytotoxicity control for HIV Vif inhibitor project, dose response (AID 652208); assay type: functional
Bcl-2-like protein 1 = Bcl-2-like protein 1 (Homo sapiens, UniProt Q07817); experiment: blockers of BCLXL peptide binding – biochemical, fluorescence polarization, 1536-well, selectivity assay for MCL1 inhibitor project, dose response (AID 2218)
Caspase-6 = biological target: T3, Caspase-6 (Homo sapiens, UniProt P55212); experiment: inhibition of CASP6 peptide cleavage – biochemical, VEID-R110 fluorescence, cherry-pick, dose response (AID 720632)
T3 sequence (P55212 whole entry): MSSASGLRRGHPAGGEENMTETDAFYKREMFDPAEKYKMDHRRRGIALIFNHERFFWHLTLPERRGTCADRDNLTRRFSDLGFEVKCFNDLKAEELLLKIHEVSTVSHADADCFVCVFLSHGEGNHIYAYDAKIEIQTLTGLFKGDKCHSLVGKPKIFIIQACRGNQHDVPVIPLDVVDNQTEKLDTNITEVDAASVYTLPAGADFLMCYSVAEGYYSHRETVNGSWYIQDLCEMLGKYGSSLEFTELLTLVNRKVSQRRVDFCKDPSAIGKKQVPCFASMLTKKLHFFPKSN

[10] = biological target: T1, Induced myeloid leukemia cell differentiation protein Mcl-1; experiment: blockers of MCL1 binding to BIM peptide – biochemical, fluorescence polarization, BIM-BH3 peptide, 1536-well, dose response (AID 2217)
Caspase-7 = Caspase-7 (Homo sapiens, UniProt P55210); experiment: caspase-7 enzyme inhibition, selectivity check – biochemical, DEVD-R110 fluorescence, cherry-pick, selectivity assay for caspase-6 inhibitor project, dose response (AID 743295); assay type: functional
[11] = biological target: T4, Carboxy-terminal domain RNA polymerase II polypeptide A small phosphatase 1 (Homo sapiens, UniProt Q9GZU7); experiment: CTDSP1 inhibitors, concentration-response, biochemical, absorbance readout, ultra-high-throughput screen actives (AID 540297); assay type: functional
T4 sequence (Q9GZU7 whole entry): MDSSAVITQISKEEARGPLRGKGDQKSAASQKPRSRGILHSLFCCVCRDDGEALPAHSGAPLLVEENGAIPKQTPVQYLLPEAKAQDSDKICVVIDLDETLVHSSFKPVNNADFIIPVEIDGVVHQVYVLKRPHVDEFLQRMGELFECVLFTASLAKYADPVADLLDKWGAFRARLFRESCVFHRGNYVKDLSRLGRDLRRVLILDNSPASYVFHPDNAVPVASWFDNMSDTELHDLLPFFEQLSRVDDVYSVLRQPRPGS

Caspase-8 = Caspase-8 (Homo sapiens, UniProt Q14790); experiment: inhibitors of purified CASP8 protease – biochemical, Z-IETD-R110 fluorescence, cherry-picked samples, selectivity assay for caspase-6 inhibitor project, dose response (AID 743294)
Protein Tat = Protein Tat (Human immunodeficiency virus type 1 group M subtype B (isolate HXB2)(HIV-1), UniProt P04608); assay type: functional;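 note: tat binding to TAR RNA read out by fluorescence polarization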
[12] = biological target: T5, Beta-2 adrenergic receptor (Homo sapiens, UniProt P07550); experiment: Dose response for HTS for Beta-2AR agonists via FAP method from Powderset1.; assay type: functional
[13] = biological target: T2, Tyrosine-protein phosphatase non-receptor type 7; experiment: HePTP tyrosine phosphatase activity blockers – biochemical, absorbance, leukemia target, primary screen (AID 521); assay type: functional
[14] = biological target: T5, Beta-2 adrenergic receptor; experiment: ADRB2 activation measured by internalization – cell-based, FAP fluorogen, flow cytometry, cherry pick 1, dose response (AID 588763); assay type: functional
NADPH oxidase 1 = NADPH oxidase 1 (Homo sapiens, UniProt Q9Y5S8); experiment: Late-stage luminescence-based cell-based dose response assay to identify inhibitors of NADPH oxidase 1 (NOX1): Purchased analogs 2.; assay type: functional
Paired box protein Pax-8 = Paired box protein Pax-8 (Homo sapiens, UniProt Q06710); experiment: PAX8 transcriptional activity inhibition in RMG-I – RMG-I cells, luciferase, cherry-pick, dose response (AID 687027); assay type: functional, cell-based;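 note: luciferase reporter driven by Pax8 target thyroperoxidase promoter measured by SteadyGlo luminescence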
[15] = PAX8-dependent cell viability loss – plate reader, dry powder, dose response (AID 743049); assay type: functional, cell-based
[16] = PAX5 cellular inhibition readout – cell-based, plate reader, dry powder samples, selectivity assay for PAX8 inhibitor project, dose response (AID 743047); assay type: functional;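 note: HEK293 cells carrying a Pax5 driven CD19 promoter luciferase reporter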
[17] = inhibitors acting on PAX2 in cells – cell-based, plate reader, dry powder samples, selectivity assay for PAX8 inhibitor project, dose response (AID 743048); assay type: functional;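 note: HEK293 cells carrying a WT1 promoter luciferase reporter driven by expressed Pax2; potency is for inhibition of Pax2 driven reporter signal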

T5 sequence (P07550 whole entry): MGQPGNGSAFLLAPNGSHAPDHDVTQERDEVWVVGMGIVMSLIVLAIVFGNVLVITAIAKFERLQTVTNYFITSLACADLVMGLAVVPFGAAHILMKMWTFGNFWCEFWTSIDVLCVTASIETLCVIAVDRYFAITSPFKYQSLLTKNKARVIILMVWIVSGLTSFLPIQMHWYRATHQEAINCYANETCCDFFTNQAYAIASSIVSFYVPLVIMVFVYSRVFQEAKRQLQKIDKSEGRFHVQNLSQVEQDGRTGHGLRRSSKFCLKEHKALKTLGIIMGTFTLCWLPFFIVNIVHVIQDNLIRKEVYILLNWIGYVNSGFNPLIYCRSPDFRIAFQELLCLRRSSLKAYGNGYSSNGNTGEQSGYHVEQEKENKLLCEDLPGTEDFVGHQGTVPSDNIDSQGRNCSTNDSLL
T1 sequence (Q07820 whole entry): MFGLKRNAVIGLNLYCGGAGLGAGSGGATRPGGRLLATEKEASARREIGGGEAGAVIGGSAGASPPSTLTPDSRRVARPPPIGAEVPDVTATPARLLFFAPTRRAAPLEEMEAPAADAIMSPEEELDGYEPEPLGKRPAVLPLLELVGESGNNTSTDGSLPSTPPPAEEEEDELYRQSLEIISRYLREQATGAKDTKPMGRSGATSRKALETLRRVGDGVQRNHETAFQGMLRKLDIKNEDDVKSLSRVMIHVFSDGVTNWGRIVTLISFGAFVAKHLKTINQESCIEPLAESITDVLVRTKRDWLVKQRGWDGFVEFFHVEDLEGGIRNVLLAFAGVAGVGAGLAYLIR
Chain of Muscarinic acetylcholine receptor M1 (P08482 whole entry): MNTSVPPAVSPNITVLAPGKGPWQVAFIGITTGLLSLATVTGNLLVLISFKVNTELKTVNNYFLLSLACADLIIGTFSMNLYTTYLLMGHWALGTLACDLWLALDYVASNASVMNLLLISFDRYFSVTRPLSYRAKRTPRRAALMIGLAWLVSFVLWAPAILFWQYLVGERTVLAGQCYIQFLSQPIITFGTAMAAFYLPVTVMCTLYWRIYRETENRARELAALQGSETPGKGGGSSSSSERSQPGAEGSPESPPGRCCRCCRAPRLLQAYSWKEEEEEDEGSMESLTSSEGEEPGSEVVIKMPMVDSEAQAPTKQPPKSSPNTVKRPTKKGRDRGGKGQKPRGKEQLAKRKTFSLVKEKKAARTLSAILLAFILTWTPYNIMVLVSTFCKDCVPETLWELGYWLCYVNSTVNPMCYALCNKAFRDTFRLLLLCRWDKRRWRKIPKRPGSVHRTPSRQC
Chain of Ephrin type-A receptor 4 (Q03137 whole entry): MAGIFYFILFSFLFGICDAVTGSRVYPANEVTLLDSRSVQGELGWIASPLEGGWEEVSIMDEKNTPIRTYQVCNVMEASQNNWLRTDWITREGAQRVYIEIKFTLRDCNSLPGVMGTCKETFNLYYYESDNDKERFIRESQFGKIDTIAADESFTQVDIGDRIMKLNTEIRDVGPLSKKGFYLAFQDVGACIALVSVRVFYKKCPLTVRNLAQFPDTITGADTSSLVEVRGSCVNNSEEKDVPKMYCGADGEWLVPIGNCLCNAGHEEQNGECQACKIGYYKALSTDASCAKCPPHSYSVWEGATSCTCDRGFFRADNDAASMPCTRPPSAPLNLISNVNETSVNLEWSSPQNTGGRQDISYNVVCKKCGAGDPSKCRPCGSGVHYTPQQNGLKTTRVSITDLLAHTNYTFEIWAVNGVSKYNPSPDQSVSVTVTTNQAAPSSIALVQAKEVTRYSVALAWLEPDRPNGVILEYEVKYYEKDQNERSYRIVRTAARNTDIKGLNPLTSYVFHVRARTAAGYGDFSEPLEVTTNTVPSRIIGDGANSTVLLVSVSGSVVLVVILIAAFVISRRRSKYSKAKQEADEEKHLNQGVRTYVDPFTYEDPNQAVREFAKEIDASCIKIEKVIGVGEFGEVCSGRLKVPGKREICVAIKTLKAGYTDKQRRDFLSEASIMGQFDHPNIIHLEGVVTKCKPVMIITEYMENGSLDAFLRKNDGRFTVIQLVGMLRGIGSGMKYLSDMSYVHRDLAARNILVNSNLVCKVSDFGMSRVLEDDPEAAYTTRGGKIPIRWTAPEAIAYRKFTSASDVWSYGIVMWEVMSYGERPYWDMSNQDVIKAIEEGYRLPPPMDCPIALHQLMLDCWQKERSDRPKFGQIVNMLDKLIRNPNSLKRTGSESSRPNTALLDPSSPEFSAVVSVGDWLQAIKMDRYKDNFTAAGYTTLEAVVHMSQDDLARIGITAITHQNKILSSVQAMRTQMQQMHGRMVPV
Chain of Paired box protein Pax-8 (Q06710 whole entry): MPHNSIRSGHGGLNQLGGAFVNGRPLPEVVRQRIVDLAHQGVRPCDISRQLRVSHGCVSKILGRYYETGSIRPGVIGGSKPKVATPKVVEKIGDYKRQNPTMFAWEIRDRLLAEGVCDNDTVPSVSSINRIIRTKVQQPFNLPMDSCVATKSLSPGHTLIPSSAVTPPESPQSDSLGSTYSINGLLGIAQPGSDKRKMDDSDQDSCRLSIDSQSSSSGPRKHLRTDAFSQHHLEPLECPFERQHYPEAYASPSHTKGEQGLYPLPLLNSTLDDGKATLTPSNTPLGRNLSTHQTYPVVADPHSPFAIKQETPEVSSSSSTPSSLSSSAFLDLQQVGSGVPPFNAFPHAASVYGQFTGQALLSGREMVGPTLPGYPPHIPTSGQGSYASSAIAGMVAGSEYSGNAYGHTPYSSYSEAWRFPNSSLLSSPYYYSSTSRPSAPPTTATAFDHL
Chain of E3 ubiquitin-protein ligase Mdm2 (Q00987 whole entry): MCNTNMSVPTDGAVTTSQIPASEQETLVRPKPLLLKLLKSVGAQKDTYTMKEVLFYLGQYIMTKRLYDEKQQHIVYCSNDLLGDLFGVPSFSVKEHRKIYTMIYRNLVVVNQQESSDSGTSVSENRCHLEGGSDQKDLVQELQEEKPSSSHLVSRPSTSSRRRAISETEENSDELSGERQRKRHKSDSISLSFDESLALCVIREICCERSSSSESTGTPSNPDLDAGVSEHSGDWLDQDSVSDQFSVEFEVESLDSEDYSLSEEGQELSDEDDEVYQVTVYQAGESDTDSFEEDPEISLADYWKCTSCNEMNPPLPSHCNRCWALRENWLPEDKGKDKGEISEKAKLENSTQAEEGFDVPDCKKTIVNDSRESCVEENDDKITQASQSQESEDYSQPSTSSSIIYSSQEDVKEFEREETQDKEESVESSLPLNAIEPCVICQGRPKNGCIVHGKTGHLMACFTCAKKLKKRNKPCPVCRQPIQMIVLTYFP
Chain of NADPH oxidase 1 (Q9Y5S8 whole entry): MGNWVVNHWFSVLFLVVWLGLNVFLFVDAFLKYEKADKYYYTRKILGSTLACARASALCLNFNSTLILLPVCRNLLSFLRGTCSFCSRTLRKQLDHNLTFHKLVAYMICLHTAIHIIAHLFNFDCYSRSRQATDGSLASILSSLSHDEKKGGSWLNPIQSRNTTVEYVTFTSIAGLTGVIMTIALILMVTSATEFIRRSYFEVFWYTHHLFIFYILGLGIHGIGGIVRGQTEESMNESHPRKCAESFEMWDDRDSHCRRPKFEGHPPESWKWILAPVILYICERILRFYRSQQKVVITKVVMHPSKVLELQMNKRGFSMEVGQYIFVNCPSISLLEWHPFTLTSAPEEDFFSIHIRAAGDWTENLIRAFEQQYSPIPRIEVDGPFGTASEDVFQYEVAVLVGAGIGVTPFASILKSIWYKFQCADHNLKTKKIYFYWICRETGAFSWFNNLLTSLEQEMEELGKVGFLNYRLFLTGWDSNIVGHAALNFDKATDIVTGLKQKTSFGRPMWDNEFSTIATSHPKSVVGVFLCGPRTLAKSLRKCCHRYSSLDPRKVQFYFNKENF
Chain of Protein Tat (P04608 whole entry): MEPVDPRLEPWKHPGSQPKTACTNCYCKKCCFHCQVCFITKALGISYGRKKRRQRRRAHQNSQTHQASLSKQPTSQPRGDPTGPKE
Chain of Estrogen receptor beta (Q92731 whole entry): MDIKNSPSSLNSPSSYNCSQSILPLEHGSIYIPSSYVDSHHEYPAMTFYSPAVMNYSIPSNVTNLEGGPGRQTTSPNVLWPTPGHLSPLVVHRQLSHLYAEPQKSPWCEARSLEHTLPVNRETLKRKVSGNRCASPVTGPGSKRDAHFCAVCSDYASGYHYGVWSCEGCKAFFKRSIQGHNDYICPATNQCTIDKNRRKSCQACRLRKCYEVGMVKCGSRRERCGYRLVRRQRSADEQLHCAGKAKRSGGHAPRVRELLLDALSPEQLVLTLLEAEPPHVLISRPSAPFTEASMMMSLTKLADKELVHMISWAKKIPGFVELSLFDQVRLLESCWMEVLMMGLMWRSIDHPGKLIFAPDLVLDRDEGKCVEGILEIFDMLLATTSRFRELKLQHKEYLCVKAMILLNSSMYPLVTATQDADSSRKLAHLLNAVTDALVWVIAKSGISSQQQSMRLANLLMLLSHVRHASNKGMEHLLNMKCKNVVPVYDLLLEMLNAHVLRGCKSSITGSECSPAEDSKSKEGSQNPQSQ
Chain of Caspase-8 (Q14790 217-374 limits assumed): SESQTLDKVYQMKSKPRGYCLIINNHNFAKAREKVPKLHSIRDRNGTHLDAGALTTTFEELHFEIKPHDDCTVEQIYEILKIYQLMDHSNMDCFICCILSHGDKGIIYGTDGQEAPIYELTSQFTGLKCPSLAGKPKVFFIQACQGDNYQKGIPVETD
Chain of Caspase-8 (Q14790 385-479 limits assumed): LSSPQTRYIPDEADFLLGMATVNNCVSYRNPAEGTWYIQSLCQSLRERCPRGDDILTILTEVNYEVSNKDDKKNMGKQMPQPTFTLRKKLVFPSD
Chain of Caspase-7 (P55210 24-198 limits assumed): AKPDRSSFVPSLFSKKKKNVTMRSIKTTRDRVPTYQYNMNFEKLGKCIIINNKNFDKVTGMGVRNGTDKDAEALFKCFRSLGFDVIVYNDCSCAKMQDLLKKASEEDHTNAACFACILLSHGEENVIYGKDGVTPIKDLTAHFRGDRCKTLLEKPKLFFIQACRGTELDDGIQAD
Chain of Caspase-7 (P55210 207-303 limits assumed): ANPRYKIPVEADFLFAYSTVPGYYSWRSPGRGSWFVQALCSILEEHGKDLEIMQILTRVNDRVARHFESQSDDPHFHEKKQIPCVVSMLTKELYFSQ

**Q.** Which EC50 [1] does the source give for `Cn1cc(-c2ccc(CN3C(=O)C(=O)c4ccccc43)c(F)c2)cn1` here?
**A.** The EC50 was 0.845 µM (active).

**Q.** For `O=C(CSc1n[nH]c(-c2ccccc2)n1)Nc1ccc(Br)cn1`, which CC50 [2] is on record?
**A.** Its CC50 is > 40 µM (active).

**Q.** What about the IC50 [3] of the same compound?
**A.** The IC50 was > 100 µM (active).

**Q.** Which IC50 [4] does the source give for `O=C(NCc1ccccc1)c1ccc2nc(-c3ccco3)c(-c3ccco3)nc2c1` here?
**A.** Its IC50 is 4.26 µM (active).

**Q.** And the IC50 (Ephrin type-A receptor 4)?
**A.** Its IC50 is 11.1 µM (active).

**Q.** And the IC50 [5]?
**A.** The IC50 was 3.99 µM (active).

**Q.** And the IC50 (Estrogen receptor beta)?
**A.** Its IC50 is < 0.023 µM (not active).

**Q.** For `COc1ccc(-c2cc(C(F)(F)F)nc(S(=O)(=O)CCCC(=O)Nc3cccnc3Cl)n2)cc1OC`, which AC50 [6] is on record?
**A.** The AC50 was 3.17 µM (active).

**Q.** And the EC50 [7]?
**A.** Its EC50 is 25 µM (not active).

**Q.** What about the AC50 [8] of the same compound?
**A.** The AC50 was 13.8 µM (active).

**Q.** And the AC50 [9]?
**A.** The AC50 was 11.6 µM (active).

**Q.** For `Cc1ccc(C)c(NC(=O)CN(C)C(=O)c2cccc(-n3cccc3)c2)c1`, which IC50 (Bcl-2-like protein 1) is on record?
**A.** Its IC50 is > 109 µM (not active).

**Q.** And the AC50 (Caspase-6)?
**A.** The AC50 was 4.58 µM (active).

**Q.** And the IC50 [10]?
**A.** The IC50 was 10.9 µM (not active).

**Q.** What about the AC50 (Caspase-7) of the same compound?
**A.** The AC50 was > 70 µM (inactive).

**Q.** What about the IC50 [11] of the same compound?
**A.** Its IC50 is 6.04 µM (active).

**Q.** What about the AC50 (Caspase-8) of the same compound?
**A.** Its AC50 is > 70 µM (inactive).

**Q.** And the IC50 (Protein Tat)?
**A.** The IC50 was > 100 µM (active).

**Q.** Which EC50 [12] does the source give for `Cc1ccc(OCC(=O)Nc2ccc(-c3nc4ncccc4o3)cc2)cc1` here?
**A.** Its EC50 is 0.0155 µM (active).

**Q.** What about the IC50 [13] of the same compound?
**A.** The IC50 was > 100 µM (not active).

**Q.** What about the EC50 [14] of the same compound?
**A.** Its EC50 is 31.6 nM (active) and 61.1 nM (active).

**Q.** With `CN(CCO)c1ccc(/C=N/Nc2c(F)c(F)nc(F)c2F)cc1` as the compound, how does the IC50 (NADPH oxidase 1) read?
**A.** The IC50 was 1.11 µM (active).

**Q.** For `C[C@H](CO)N1C[C@H](C)[C@@H](CN(C)S(=O)(=O)c2ccc(-c3ccccc3)cc2)OCc2cn(nn2)CCCC1=O`, which AC50 (Paired box protein Pax-8) is on record?
**A.** The AC50 was 3.99 µM (active).

**Q.** What about the AC50 [15] of the same compound?
**A.** Its AC50 is > 70 µM (inactive).

**Q.** And the AC50 [16]?
**A.** The AC50 was > 70 µM (inactive).

**Q.** What about the AC50 [17] of the same compound?
**A.** Its AC50 is > 70 µM (inactive).
